PubChem BioAssay AID1919016 (Molecular Pharmacology Branch, DTP, NCI, 2023)

Tested on: NCI-H196 complex spheroid growth, percent test/control
Assay: Anticancer human tumor NCI-H196 cell line growth inhibition [AhR];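 note: seven days of drug exposure starting three days after plating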;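 for viability, T/C: 100% = DMSO vehicle control wells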
Conditions: for IC50: curve of first compound; for viability, T/C: stronger effect = lower value; active = viability on the fitted dose curve at most 10% of control; inactive = the rest
Procedure, shortened: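 Spheroids combined tumor cells with HUVEC endothelial cells and human MSCs as stroma. AhR antagonists were paired with standard or investigational drugs, each dosed in half-log steps down from near clinical Cmax, or from 10 microM where Cmax was unknown.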

[1] = second compound 0.1 µM, first compound 0.0316 µM
[2] = second compound 0.1 µM, first compound 0.1 µM
[3] = second compound 0.1 µM, first compound 0.316 µM
[4] = second compound 0.1 µM, first compound 1 µM
[5] = second compound 0.1 µM, first compound 3.16 µM
[6] = second compound 0.1 µM, first compound 10 µM
[7] = second compound 0.316 µM, first compound 0.0316 µM
[8] = second compound 0.316 µM, first compound 0.1 µM
[9] = second compound 0.316 µM, first compound 0.316 µM
[10] = second compound 0.316 µM, first compound 1 µM
[11] = second compound 0.316 µM, first compound 3.16 µM
[12] = second compound 0.316 µM, first compound 10 µM
[13] = second compound 1 µM, first compound 0.0316 µM
[14] = second compound 1 µM, first compound 0.1 µM
[15] = second compound 1 µM, first compound 0.316 µM
[16] = second compound 1 µM, first compound 1 µM
[17] = second compound 1 µM, first compound 3.16 µM
[18] = second compound 1 µM, first compound 10 µM
[19] = second compound 3.16 µM, first compound 0.0316 µM
[20] = second compound 3.16 µM, first compound 0.1 µM
[21] = second compound 3.16 µM, first compound 0.316 µM
[22] = second compound 3.16 µM, first compound 1 µM
[23] = second compound 3.16 µM, first compound 3.16 µM
[24] = second compound 3.16 µM, first compound 10 µM
[25] = second compound 10 µM, first compound 0.0316 µM
[26] = second compound 10 µM, first compound 0.1 µM
[27] = second compound 10 µM, first compound 0.316 µM
[28] = second compound 10 µM, first compound 1 µM
[29] = second compound 10 µM, first compound 3.16 µM
[30] = second compound 10 µM, first compound 10 µM

CC(C)c1c(-c2ccccc2)nc2c(C#N)c[nH]n2c1=O + Cc1ccccc1N=Nc1ccc(NC(=O)c2ccnn2C)c(C)c1
> 10000 nM: IC50 (second compound 0.1 µM) | IC50 (second compound 0.316 µM) | IC50 (second compound 1 µM) | IC50 (second compound 3.16 µM) | IC50 (second compound 10 µM)
inactive: viability, T/C [1] 103% | viability, T/C [2] 104% | viability, T/C [3] 89.5% | viability, T/C [4] 99.1% | viability, T/C [5] 112% | viability, T/C [6] 97.9% | viability, T/C [7] 95.6% | viability, T/C [8] 99.4% | viability, T/C [9] 99.4% | viability, T/C [10] 93.6% | viability, T/C [11] 103% | viability, T/C [12] 88.7% | viability, T/C [13] 97.7% | viability, T/C [14] 96.9% | viability, T/C [15] 101% | viability, T/C [16] 97% | viability, T/C [17] 99.3% | viability, T/C [18] 104% | viability, T/C [19] 109% | viability, T/C [20] 100% | viability, T/C [21] 101% | viability, T/C [22] 96.3% | viability, T/C [23] 94.9% | viability, T/C [24] 104% | viability, T/C [25] 95% | viability, T/C [26] 98% | viability, T/C [27] 96.5% | viability, T/C [28] 95.7% | viability, T/C [29] 96.1% | viability, T/C [30] 95.7%

CC1COCCN1c1cc(-c2ccnn2C)c2ccnc(-c3ccn[nH]3)c2n1 (stereo not given) + Cc1ccccc1N=Nc1ccc(NC(=O)c2ccnn2C)c(C)c1
> 1000 nM: IC50 (second compound 0.1 µM) | IC50 (second compound 0.316 µM) | IC50 (second compound 1 µM) | IC50 (second compound 3.16 µM) | IC50 (second compound 10 µM)
inactive: viability, T/C (second compound 0.1 µM, first compound 0.00316 µM) 96.4% | viability, T/C (second compound 0.1 µM, first compound 0.01 µM) 90.9% | viability, T/C [1] 86% | viability, T/C [2] 66% | viability, T/C [3] 58.3% | viability, T/C [4] 53% | viability, T/C (second compound 0.316 µM, first compound 0.00316 µM) 98.9% | viability, T/C (second compound 0.316 µM, first compound 0.01 µM) 96.1% | viability, T/C [7] 87.5% | viability, T/C [8] 71.3% | viability, T/C [9] 52.2% | viability, T/C [10] 52.7% | viability, T/C (second compound 1 µM, first compound 0.00316 µM) 85.2% | viability, T/C (second compound 1 µM, first compound 0.01 µM) 94.5% | viability, T/C [13] 85.5% | viability, T/C [14] 71.1% | viability, T/C [15] 56% | viability, T/C [16] 52.1% | viability, T/C (second compound 3.16 µM, first compound 0.00316 µM) 89.2% | viability, T/C (second compound 3.16 µM, first compound 0.01 µM) 94.2% | viability, T/C [19] 91.5% | viability, T/C [20] 70.5% | viability, T/C [21] 56.6% | viability, T/C [22] 49.9% | viability, T/C (second compound 10 µM, first compound 0.00316 µM) 96.8% | viability, T/C (second compound 10 µM, first compound 0.01 µM) 88.9% | viability, T/C [25] 77.9% | viability, T/C [26] 74.6% | viability, T/C [27] 63.4% | viability, T/C [28] 52.8%

COc1ccc([C@@H](O)c2cc(-c3ncnc4cc(N5CCOCC5)ccc34)c(F)cc2Cl)nn1 + Cc1ccccc1N=Nc1ccc(NC(=O)c2ccnn2C)c(C)c1
inactive: viability, T/C [1] 97.4% | viability, T/C [2] 92.5% | viability, T/C [3] 96% | viability, T/C [4] 81.8% | viability, T/C [5] 72.8% | viability, T/C [6] 65.4% | viability, T/C [7] 95.3% | viability, T/C [8] 102% | viability, T/C [9] 90% | viability, T/C [10] 78.3% | viability, T/C [11] 68.9% | viability, T/C [12] 68% | viability, T/C [13] 85.7% | viability, T/C [14] 88% | viability, T/C [15] 88.6% | viability, T/C [16] 89.3% | viability, T/C [17] 72.6% | viability, T/C [18] 66.6% | viability, T/C [19] 97.3% | viability, T/C [20] 96.8% | viability, T/C [21] 86.8% | viability, T/C [22] 77.1% | viability, T/C [23] 74.6% | viability, T/C [24] 65.1% | viability, T/C [25] 88.1% | viability, T/C [26] 83.8% | viability, T/C [27] 79.4% | viability, T/C [28] 73.1% | viability, T/C [29] 76.5% | viability, T/C [30] 60.3%
> 10000 nM: IC50 (second compound 0.1 µM) | IC50 (second compound 0.316 µM) | IC50 (second compound 1 µM) | IC50 (second compound 3.16 µM) | IC50 (second compound 10 µM)

O=C(C=Cn1cnc(-c2cc(C(F)(F)F)cc(C(F)(F)F)c2)n1)NNc1cnccn1 + Cc1ccccc1N=Nc1ccc(NC(=O)c2ccnn2C)c(C)c1
33.4 nM: IC50 (second compound 0.1 µM)
35.4 nM: IC50 (second compound 3.16 µM)
active: viability, T/C (second compound 0.1 µM, first compound 0.0949 µM) 6.66% | viability, T/C (second compound 0.1 µM, first compound 0.3 µM) 6.81% | viability, T/C (second compound 0.1 µM, first compound 0.949 µM) 5.42% | viability, T/C (second compound 0.1 µM, first compound 3 µM) 7.76% | viability, T/C (second compound 0.316 µM, first compound 0.0949 µM) 8.61% | viability, T/C (second compound 0.316 µM, first compound 0.3 µM) 5.66% | viability, T/C (second compound 0.316 µM, first compound 0.949 µM) 6.01% | viability, T/C (second compound 0.316 µM, first compound 3 µM) 6.07% | viability, T/C (second compound 1 µM, first compound 0.0949 µM) 9.47% | viability, T/C (second compound 1 µM, first compound 0.3 µM) 5.55% | viability, T/C (second compound 1 µM, first compound 0.949 µM) 8.58% | viability, T/C (second compound 1 µM, first compound 3 µM) 8.52% | viability, T/C (second compound 3.16 µM, first compound 0.0949 µM) 9.86% | viability, T/C (second compound 3.16 µM, first compound 0.3 µM) 4.79% | viability, T/C (second compound 3.16 µM, first compound 0.949 µM) 7.89% | viability, T/C (second compound 3.16 µM, first compound 3 µM) 8.09%
36.6 nM: IC50 (second compound 0.316 µM)
inactive: viability, T/C (second compound 0.1 µM, first compound 0.00949 µM) 71.3% | viability, T/C (second compound 0.1 µM, first compound 0.03 µM) 54.5% | viability, T/C (second compound 0.316 µM, first compound 0.00949 µM) 72.7% | viability, T/C (second compound 0.316 µM, first compound 0.03 µM) 58.6% | viability, T/C (second compound 1 µM, first compound 0.00949 µM) 79.8% | viability, T/C (second compound 1 µM, first compound 0.03 µM) 56% | viability, T/C (second compound 3.16 µM, first compound 0.00949 µM) 68.4% | viability, T/C (second compound 3.16 µM, first compound 0.03 µM) 56.8% | viability, T/C (second compound 10 µM, first compound 0.00949 µM) 74.6% | viability, T/C (second compound 10 µM, first compound 0.03 µM) 64% | viability, T/C (second compound 10 µM, first compound 0.0949 µM) 13.8% | viability, T/C (second compound 10 µM, first compound 0.3 µM) 10.6% | viability, T/C (second compound 10 µM, first compound 0.949 µM) 8.84% | viability, T/C (second compound 10 µM, first compound 3 µM) 12.8%
34.8 nM: IC50 (second compound 1 µM)
41.3 nM: IC50 (second compound 10 µM)
